Where a name gives a salt, the structure may show the parent alone.
First: O=C(C=Cc1cccc(-c2ccc(F)cc2)c1)Nc1ccc(CN2CCCCC2)cc1 [Compound 83, 1—(4—(3—(4-fluoro-phenyl)cinnamoylamino)benzyl)piperidine]
Second: Cc1ccc(-c2cccc(/C=C/C(=O)Nc3ccc(C[N+]4(C)CCCCC4)cc3)c2)cc1 (as salt: iodide) [Compound 72, (E)-1-methyl-1-[4—(3—(4-methylphenyl)cinnamamido)benzyl]-piperidinium iodide]
The melting point of the first is lower: 166 to 167 °C for the first, 176 to 178 °C for the second.

Compared with `Cc1ccc(-c2ccc3c(c2)C=C(C(=O)Nc2ccc(C[S+]([O-])Cc4ccccc4)cc2)CCO3)cc1` (stereo not drawn) [Compound 109, N-(4—(benzylsulfinylmethyl)phenyl)-7—(4-methylphenyl)-2,3-dihydro-1-benzoxepine-4-carboxamide], `Cc1ccc(-c2ccc3c(c2)C=C(C(=O)Nc2ccc(CSc4ccccc4)cc2)CCO3)cc1` [Compound 82, 7—(4-methylphenyl)-N-(4—(phenyl-thiomethyl)phenyl)-2,3-dihydro-1-benzoxepine-4-carboxamide] is lower in melting point: 208 to 209 °C for the first, 176 to 177 °C for the second.

First: CCSc1ccc(-c2ccc3c(c2)C=C(C(=O)Nc2ccc(CN(C)C4CCOCC4)cc2)CCN3C)cc1 [Compound 320, 7-(4-ethylthiophenyl)-1-methyl-N-[4-[[N-methyl-N-(tetrahydro-2H-pyran-4-yl)amino]methyl]phenyl]-2,3-dihydro-1-benzazepine-4-carboxamide]
Second: CN1CCC(C(=O)Nc2ccc(CN(C)C3CCOCC3)cc2)=Cc2cc(-c3ccc(OC(F)(F)F)cc3)ccc21 [Compound 315, 1-methyl-N-[4-[[N-methyl-N-(tetrahydro-2H-pyran-4-yl)amino]methyl]phenyl]-7-(4-trifluoromethoxyphenyl)-2,3-dihydro-1-benzazepine-4-carboxamide]
The melting point of the first is lower: 139 to 141 °C for the first, 182 to 183 °C for the second.

Compared with `COCOc1ccc[n+]([O-])c1Cc1ccc(NC(=O)C2=Cc3cc(-c4ccc(C)cc4)ccc3OCC2)cc1` [Compound 173, N-[4—(1-oxido-3-methoxymethoxypyridin-2-ylmethyl)phenyl]-7—(4-methylphenyl)-2,3-dihydro-1-benzoxepine-4-carboxamide], `Cc1ccc(-c2ccc3c(c2)C=C(C(=O)Nc2ccc(Cc4cccc[n+]4[O-])cc2)CCO3)cc1` [Compound 162, N-[4—(1-oxidopyridin-2-ylmethyl)phenyl]-7—(4-methylphenyl)-2,3-dihydro-1-benzoxepine-4-carboxamide] is lower in melting point: 206 to 208 °C for the first, 188 to 190 °C for the second.

First: Cc1ccc(-c2ccc3c(c2)C=C(C(=O)Nc2ccc(C[N+]4(C)CCCCC4)cc2)CCS3)cc1 (as salt: iodide) [Compound 94, 1—(N-(7—(4-methylphenyl)-2,3-dihydro-1-benzo-thiepine-4-carbonyl)-4-aminobenzyl)-1-methyl-piperidinium iodide]
Second: Cc1ccc(-c2ccc3c(c2)C=C(C(=O)Nc2ccc(CN4CCCCC4)cc2)CC3)cc1 [Compound 14, 7—(4-methylphenyl)-N-[4—(piperidinomethyl)phenyl]-3,4-dihydronaphthalene-2-carboxamide]
The melting point of the first is higher: 196 to 197 °C for the first, 187 to 189 °C for the second.

First: COCCN(CCOC)Cc1ccc(NC(=O)C2=Cc3cc(-c4ccc(C)cc4)ccc3OCC2)cc1 [Compound 311, N-(4-((N,N-bis(2-methoxyethyl)amino)methyl)phenyl)-7-(4-methylphenyl)-2,3-dihydro-1-benzoxepine-4-carboxamide]
Second: Cc1ccc(-c2ccc3c(c2)C=C(C(=O)Nc2ccc(-c4ccccn4)cc2)CCO3)cc1 [Compound 159, N-[4—(2-pyridyl)phenyl]-7—(4-methylphenyl)-2,3-dihydro-1-benzoxepine-4-carboxamide]
The melting point of the first is lower: 110 to 112 °C for the first, 228 to 229 °C for the second.

First: COc1ccc(-c2ccc3c(c2)C=C(C(=O)Nc2ccc(CN(C)C4CCOCC4)cc2)CCS3)cc1 [Compound 282, 7-(4-methoxyphenyl)-N-[4-[N-methyl-N-(tetrahydropyran-4-yl)aminomethyl]phenyl]-2,3-dihydro-1-benzothiepine-4-carboxamide]
Second: CCc1ccc(-c2ccc3c(c2)C=C(C(=O)Nc2ccc(CN(C)C4CCOCC4)cc2)CCO3)cc1 [Compound 177, N-[4-[N-methyl-N-(tetrahydropyran-4-yl)aminomethyl]phenyl]-7—(4-ethylphenyl)-2,3-dihydro-1-benzoxepine-4-carboxamide]
The melting point of the first is lower: 162 to 164 °C for the first, 181 to 182 °C for the second.

First: COc1cc(CN2CCN(Cc3ccc(NC(=O)C4=Cc5cc(-c6ccc(C)cc6)ccc5CC4)cc3)CC2)cc(OC)c1OC [Compound 45, N-[4-[1—(3,4,5-trimethoxybenzyl)-4-piperazinylmethyl]-phenyl]-7—(4-methylphenyl)-3,4-dihydronaphthalene-2-carboxamide]
Second: Cc1ccc(-c2ccc3c(c2)C=C(C(=O)Nc2ccc(CN4CCN(CCO)CC4)cc2)CC3)cc1 [Compound 46, N-[4-[1—(2-hydroxyethyl)-4-piperazinylmethyl]phenyl]-7—(4-methylphenyl)-3,4-dihydronaphthalene-2-carboxamide]
The melting point of the first is lower: 143 to 144 °C for the first, 185 to 187 °C for the second.

First: Cc1ccc(-c2ccc3c(c2)C=C(C(=O)Nc2ccc(CN4CCC(Cc5ccccc5)CC4)cc2)CC3)cc1 [Compound 35, N-[4—(4-benzyl-piperidinomethyl)phenyl]-7—(4-methylphenyl)-3,4-dihydronaphthalene-2-carboxamide]
Second: Cc1ccc(-c2ccc3c(c2)C=C(C(=O)Nc2ccc(CN4CCN(c5ncccn5)CC4)cc2)CC3)cc1 [Compound 42, 7—(4-methylphenyl)-N-[4-[1—(2-pyrimidyl)-4-piperazinylmethyl]-phenyl]-3,4-dihydronaphthalene-2-carboxamide]
The melting point of the first is lower: 199 to 201 °C for the first, 203 to 204 °C for the second.

First: Cc1ccc(-c2ccc3c(c2)C=C(C(=O)Nc2ccc(Cc4cccc[n+]4[O-])cc2)CO3)cc1 [Compound 200, N-[4—(1-oxidopyridin-2-ylmethyl)phenyl]-6—(4-methylphenyl)-2H-1-benzopyran-3-carboxamide]
Second: Cc1ccc(-c2ccc3c(c2)C=C(C(=O)Nc2ccc(C(O)c4cccc[n+]4[O-])cc2)CCO3)cc1 (stereo not drawn) [Compound 167, N-[4-[hydroxy(1-oxidopyridin-2-yl)methyl]phenyl]-7—(4-methylphenyl)-2,3-dihydro-1-benzoxepine-4-carboxamide]
The melting point of the first is higher: 261 to 263 °C for the first, 208 to 210 °C for the second.

Compared with `COc1ccc(N2CCN(Cc3ccc(NC(=O)/C=C/c4cccc(-c5ccc(C)cc5)c4)cc3)CC2)cc1` [Compound 62, (E)-N-[4-[1—(4-methoxy-phenyl)-4-piperazinylmethyl]phenyl]-3—(4-methylphenyl)cinnamamide], `Cc1ccc(-c2cccc(/C=C/C(=O)Nc3ccc(Cc4cccc[n+]4[O-])cc3)c2)cc1` [Compound 191, (E)-N-[4—(1-oxidopyridin-2-ylmethyl)phenyl]-3—(4-methylphenyl)cinnamamide] is lower in melting point: 207 to 208 °C for the first, 183 to 185 °C for the second.

First: CN(Cc1ccc(NC(=O)C2=Cc3cc(-c4ccc(N5CCCC5)cc4)ccc3OCC2)cc1)C1CCOCC1 [Compound 150, 7—(4—(pyrrolidin-1-yl)phenyl)-N-(4—((N-tetrahydropyran-4-yl-N-methylamino)-methyl)phenyl)-2,3-dihydro-1-benzoxepine-4-carboxamide]
Second: CSc1ccc(-c2ccc3c(c2)C=C(C(=O)Nc2ccc(CN(C)C4CCOCC4)cc2)CCO3)cc1 [Compound 226, N-[4-[N-methyl-N-(tetrahydropyran-4-yl)aminomethyl]-phenyl]-7—(4-methylthiophenyl)-2,3-dihydro-1-benzoxepine-4-carboxamide]
The melting point of the first is higher: 210 to 211 °C for the first, 180 to 186 °C for the second.

First: Cc1ccc(-c2ccc3c(c2)C=C(C(=O)Nc2ccc(CNc4cccnc4)cc2)CC3)cc1 [Compound 47, 7—(4-methylphenyl)-N-[4-[N-(3-pyridyl)aminomethyl]phenyl]-3,4-dihydronaphthalene-2-carboxamide]
Second: O=C(Nc1ccc(CN2CCCCC2)cc1)C1=Cc2cc(-c3ccccc3)ccc2CC1 [Compound 4, 7-phenyl-N-[4—(piperidinomethyl)phenyl]-3,4-dihydronaphthalene-2-carboxamide]
The melting point of the first is higher: 212 to 214 °C for the first, 163 to 164 °C for the second.

First: CN(Cc1ccc(NC(=O)C2=Cc3cc(-c4ccc(-n5ccnc5)cc4)ccc3OCC2)cc1)C1CCOCC1 [Compound 153, 7—(4—(1-imidazolyl)phenyl)-N-(4—((N-tetra-hydropyran-4-yl-N-methylamino)methyl)phenyl)-2,3-dihydro-1-benzoxepine-4-carboxamide]
Second: CN(Cc1ccc(NC(=O)C2=Cc3cc(-c4ccc(S(C)(=O)=O)cc4)ccc3OCC2)cc1)C1CCOCC1 [Compound 273, 7-(4-methylsulfonylphenyl)-N-[4-[N-methyl-N-(tetra-hydropyran-4-yl)aminomethyl]phenyl]-2,3-dihydro-1-benzoxepine-4-carboxamide]
The melting point of the first is lower: 194 to 195 °C for the first, 233 to 235 °C for the second.

Compared with `Cc1ccc(-c2cc3ccc(C(=O)Nc4ccc(CN(C)C5CCOCC5)cc4)cc3o2)cc1` [Compound 278, 2-(4-methylphenyl)-N-[4-[N-methyl-N-(tetrahydropyran-4-yl)aminomethyl]phenyl]benzofuran-6-carboxamide], `Cc1ccc(-c2ccc3c(c2)C=C(C(=O)Nc2ccc(CN(C)C4CCOCC4)cc2)CCN3C=O)cc1` [Compound 317, 1-formyl-7-(4-methylphenyl)-N-[4-[[N-methyl-N-(tetrahydro-2H-pyran-4-yl)amino]methyl]phenyl]-2,3-dihydro-1-benzazepine-4-carboxamide] is higher in melting point: 224 to 227 °C for the first, 229 to 230.5 °C for the second.

For `O=C(Nc1ccc(CCN2CCCCC2)cc1)C1=Cc2cc(-c3ccccc3)ccc2CC1` [Compound 9, 7-phenyl-N-[4—(2-piperidinoethyl)phenyl]-3,4-dihydro-naphthalene-2-carboxamide], the melting point was 157 to 159 °C.

In the case of `Cc1ccc(-c2ccc3c(c2)C=C(C(=O)Nc2ccc(C[N+](C)(C)C4CCOCC4)cc2)CCO3)cc1.[Cl-]`, the melting point is reported as 232 to 237 °C (dec.).
In the case of `Cc1ccc(-c2ccc3c(c2)C=C(C(=O)Nc2ccc(Cc4c(O)ccc[n+]4[O-])cc2)CCO3)cc1` [Compound 175, N-[4—(1-oxido-3-hydroxypyridin-2-ylmethyl)phenyl]-7—(4-methylphenyl)-2,3-dihydro-1-benzoxepine-4-carboxamide], the melting point is reported as 254 °C (dec.).

— patent US6413947B1, “Anilide derivative, production and use thereof” (Takeda Chemical Industries, Ltd., priority 1997, dated 2002)
